Laboratory results as given in ChEMBL document CHEMBL3808337, “Rapid Discovery of Pyrido[3,4-d]pyrimidine Inhibitors of Monopolar Spindle Kinase 1 (MPS1) Using a Structure-Based Hybridization Approach” (J Med Chem, 2016).

Columns and labels:
[1] = Drug metabolism in CD1 mouse liver microsomes at 10 uM after 30 mins by LCMS analysis; assay type: ADME; details: read-out: Drug metabolism
[2] = Antiproliferative activity against human HCT116 cells assessed as cell viability after 72 hrs by MTT assay; assay type: functional; details: HCT-116, 72 h
CDK2/Cyclin A2 = CDK2/Cyclin A2 (Homo sapiens, UniProt P24941)
[3] = Antiproliferative activity against human SW620 cells assessed as cell viability after 72 hrs by MTT assay; assay type: functional; details: SW-620, 72 h
[4] = Plasma protein binding in Balb/C mouse at 5 mg/kg, iv or po after 24 hrs by ESI-LCMS/MS analysis; assay type: ADME, organism-based; details: read-out: PPB (converted)
[5] = target: Mitogen-activated protein kinase 8 (Homo sapiens, UniProt P45983); assay: Inhibition of human full length recombinant His-tagged JNK1 expressed in baculovirus by lanthascreen assay
Cytochrome P450 2B6 = target: T1, Cytochrome P450 2B6 (Homo sapiens, UniProt P20813); assay: Inhibition of CYP2B6 (unknown origin); assay type: ADME
T1 sequence (P20813 whole entry): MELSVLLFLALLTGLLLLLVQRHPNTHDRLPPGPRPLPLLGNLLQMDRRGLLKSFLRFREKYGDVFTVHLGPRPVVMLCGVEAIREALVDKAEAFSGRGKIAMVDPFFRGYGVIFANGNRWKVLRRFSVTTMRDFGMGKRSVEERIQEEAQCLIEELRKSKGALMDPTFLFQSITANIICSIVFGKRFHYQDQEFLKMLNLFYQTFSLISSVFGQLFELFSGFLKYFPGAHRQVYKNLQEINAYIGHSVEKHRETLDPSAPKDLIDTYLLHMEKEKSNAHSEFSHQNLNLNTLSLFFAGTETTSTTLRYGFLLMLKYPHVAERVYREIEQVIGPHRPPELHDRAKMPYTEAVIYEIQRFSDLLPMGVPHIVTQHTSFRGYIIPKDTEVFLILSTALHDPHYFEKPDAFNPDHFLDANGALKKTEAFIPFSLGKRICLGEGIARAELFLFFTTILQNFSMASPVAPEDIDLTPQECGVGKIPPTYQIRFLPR

[6] = AUC in Sprague-Dawley rat blood at 5 mg/kg, po after 24 hrs by ESI-LCMS/MS analysis; assay type: ADME, organism-based; design: time < 24 hr, dose 5 mg/kg, route oral
[7] = target: Serine/threonine-protein kinase PLK1 (Homo sapiens, UniProt P53350); assay: Inhibition of human full length recombinant His-tagged PLK1 expressed in baculovirus by Z'-LYTE assay
[8] = Oral bioavailability in Sprague-Dawley rat at 5 mg/kg after 24 hrs by ESI-LCMS/MS analysis; assay type: ADME, organism-based; details: in vivo
Cytochrome P450 2C9 = Cytochrome P450 2C9 (Homo sapiens, UniProt P11712); assay: Inhibition of CYP2C9 (unknown origin); assay type: ADME; details: human
Cytochrome P450 2A6 = target: T2, Cytochrome P450 2A6 (Homo sapiens, UniProt P11509); assay: Inhibition of CYP2A6 (unknown origin); assay type: ADME
T2 sequence (P11509 whole entry): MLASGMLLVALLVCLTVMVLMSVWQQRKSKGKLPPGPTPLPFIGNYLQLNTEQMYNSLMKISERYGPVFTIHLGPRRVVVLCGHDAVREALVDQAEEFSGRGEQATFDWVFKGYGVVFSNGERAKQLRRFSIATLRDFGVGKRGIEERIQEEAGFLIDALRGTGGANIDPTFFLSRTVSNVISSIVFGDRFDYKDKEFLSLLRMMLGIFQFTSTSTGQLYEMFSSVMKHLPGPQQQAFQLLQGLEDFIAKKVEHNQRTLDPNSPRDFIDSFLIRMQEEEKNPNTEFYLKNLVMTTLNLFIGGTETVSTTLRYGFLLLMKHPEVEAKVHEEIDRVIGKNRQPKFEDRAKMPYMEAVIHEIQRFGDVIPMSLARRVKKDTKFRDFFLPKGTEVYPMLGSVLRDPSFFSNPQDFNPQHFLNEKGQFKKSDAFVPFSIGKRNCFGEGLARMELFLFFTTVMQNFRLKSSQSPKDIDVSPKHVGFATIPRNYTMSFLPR

Cytochrome P450 2C8 = target: T3, Cytochrome P450 2C8 (Homo sapiens, UniProt P10632); assay: Inhibition of CYP2C8 (unknown origin); assay type: ADME
T3 sequence (P10632 whole entry): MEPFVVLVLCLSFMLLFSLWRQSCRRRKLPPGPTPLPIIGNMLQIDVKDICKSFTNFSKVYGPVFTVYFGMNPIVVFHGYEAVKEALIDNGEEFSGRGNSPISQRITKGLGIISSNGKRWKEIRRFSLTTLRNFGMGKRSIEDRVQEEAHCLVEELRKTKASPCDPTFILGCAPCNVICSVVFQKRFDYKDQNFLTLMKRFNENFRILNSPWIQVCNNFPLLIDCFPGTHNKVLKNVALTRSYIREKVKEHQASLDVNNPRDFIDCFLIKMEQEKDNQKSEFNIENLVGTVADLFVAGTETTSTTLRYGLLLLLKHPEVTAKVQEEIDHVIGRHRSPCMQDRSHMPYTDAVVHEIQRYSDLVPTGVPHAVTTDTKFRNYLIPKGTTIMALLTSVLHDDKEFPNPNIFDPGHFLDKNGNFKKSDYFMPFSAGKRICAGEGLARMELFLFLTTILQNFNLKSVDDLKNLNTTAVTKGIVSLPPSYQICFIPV

[9] = Drug metabolism in Sprague-Dawley rat liver microsomes at 10 uM after 30 mins by LCMS analysis; assay type: ADME; details: read-out: Drug metabolism
[10] = Antiproliferative activity against human RMG-1 cells assessed as cell viability after 72 hrs by MTT assay; assay type: functional; details: RMG-I
Cytochrome P450 2C19 = Cytochrome P450 2C19 (Homo sapiens, UniProt P33261); assay: Inhibition of CYP2C19 (unknown origin); assay type: ADME; details: human
Cytochrome P450 3A4 [11] = target: T4, Cytochrome P450 3A4 (Homo sapiens, UniProt P08684); assay: Inhibition of CYP3A4 (unknown origin) using midazolam as substrate; assay type: ADME
[12] = Plasma protein binding in Sprague-Dawley rat at 5 mg/kg, iv or po after 24 hrs by ESI-LCMS/MS analysis; assay type: ADME, organism-based; details: read-out: PPB (converted)
[13] = Volume of distribution at steady state in Balb/C mouse at 5 mg/kg, iv or po after 24 hrs by ESI-LCMS/MS analysis; assay type: ADME, organism-based; details: in vivo, read-out: Vdss
[14] = Cmax in Balb/C mouse blood at 5 mg/kg, po after 24 hrs by ESI-LCMS/MS analysis; assay type: ADME, organism-based; design: dose 5 mg/kg, route oral
[15] = Antiproliferative activity against human MIAPaCa2 cells assessed as cell viability after 72 hrs by MTT assay; assay type: functional; details: MIA PaCa-2, 72 h
[16] = Oral bioavailability in Balb/C mouse at 5 mg/kg after 24 hrs by ESI-LCMS/MS analysis; assay type: ADME, organism-based; details: in vivo
[17] = Drug metabolism in human liver microsomes at 10 uM after 30 mins by LCMS analysis; assay type: ADME; details: read-out: Drug metabolism
[18] = AUC in Balb/C mouse blood at 5 mg/kg, po after 24 hrs by ESI-LCMS/MS analysis; assay type: ADME, organism-based; design: time < 24 hr, dose 5 mg/kg, route oral
[19] = Antiproliferative activity against human CAL27 cells assessed as cell viability after 72 hrs by MTT assay; assay type: functional; details: CAL-27, 72 h
[20] = Clearance in Balb/C mouse blood at 5 mg/kg, iv or po after 24 hrs by ESI-LCMS/MS analysis; assay type: ADME, organism-based
[21] = Cmax in Sprague-Dawley rat blood at 5 mg/kg, po after 24 hrs by ESI-LCMS/MS analysis; assay type: ADME, organism-based; design: dose 5 mg/kg, route oral
[22] = Clearance in Sprague-Dawley rat blood at 5 mg/kg, iv or po after 24 hrs by ESI-LCMS/MS analysis; assay type: ADME, organism-based
[23] = Half life in Balb/C mouse blood at 5 mg/kg, iv or po after 24 hrs by ESI-LCMS/MS analysis; assay type: ADME, organism-based
[24] = Volume of distribution at steady state in Sprague-Dawley rat at 5 mg/kg, iv or po after 24 hrs by ESI-LCMS/MS analysis; assay type: ADME, organism-based; details: in vivo, read-out: Vdss
Cytochrome P450 3A4 [25] = target: T4, Cytochrome P450 3A4; assay: Inhibition of CYP3A4T (unknown origin); assay type: ADME
[26] = Antiproliferative activity against human PNT2 cells assessed as cell viability after 72 hrs by MTT assay; assay type: functional; details: PNT2, 72 h
[27] = Antiproliferative activity against human CAL51 cells assessed as cell viability after 72 hrs by MTT assay; assay type: functional; details: CAL-51, 72 h
[28] = target: Voltage-gated inwardly rectifying potassium channel KCNH2 (Homo sapiens, UniProt Q12809); assay: Inhibition of human ERG at 1 to 10 uM
Cytochrome P450 1A2 = target: T5, Cytochrome P450 1A2 (Homo sapiens, UniProt P05177); assay: Inhibition of CYP1A2 (unknown origin); assay type: ADME; details: human
T5 sequence (P05177 whole entry): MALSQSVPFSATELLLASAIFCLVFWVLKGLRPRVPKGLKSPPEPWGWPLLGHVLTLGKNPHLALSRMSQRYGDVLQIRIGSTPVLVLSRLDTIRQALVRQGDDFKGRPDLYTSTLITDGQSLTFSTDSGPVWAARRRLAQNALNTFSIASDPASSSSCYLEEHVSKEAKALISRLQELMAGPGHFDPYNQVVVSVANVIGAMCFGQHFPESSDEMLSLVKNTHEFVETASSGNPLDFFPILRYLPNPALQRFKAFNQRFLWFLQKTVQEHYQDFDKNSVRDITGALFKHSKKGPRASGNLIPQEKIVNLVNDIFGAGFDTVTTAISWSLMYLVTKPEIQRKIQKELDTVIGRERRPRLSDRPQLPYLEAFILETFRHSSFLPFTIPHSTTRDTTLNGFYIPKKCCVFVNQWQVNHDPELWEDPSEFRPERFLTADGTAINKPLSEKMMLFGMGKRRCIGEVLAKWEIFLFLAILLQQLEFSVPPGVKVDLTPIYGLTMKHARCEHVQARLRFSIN

[29] = target: Mitogen-activated protein kinase 9 (Homo sapiens, UniProt P45984); assay: Inhibition of human full length recombinant His-tagged JNK2 expressed in baculovirus by lanthascreen assay
Cytochrome P450 3A4 [30] = target: T4, Cytochrome P450 3A4; assay: Inhibition of CYP3A4 (unknown origin) using testosterone as substrate; assay type: ADME
[31] = Half life in Sprague-Dawley rat blood at 5 mg/kg, iv or po […] by ESI-LCMS/MS analysis; assay type: ADME, organism-based

T4 sequence (P08684 whole entry): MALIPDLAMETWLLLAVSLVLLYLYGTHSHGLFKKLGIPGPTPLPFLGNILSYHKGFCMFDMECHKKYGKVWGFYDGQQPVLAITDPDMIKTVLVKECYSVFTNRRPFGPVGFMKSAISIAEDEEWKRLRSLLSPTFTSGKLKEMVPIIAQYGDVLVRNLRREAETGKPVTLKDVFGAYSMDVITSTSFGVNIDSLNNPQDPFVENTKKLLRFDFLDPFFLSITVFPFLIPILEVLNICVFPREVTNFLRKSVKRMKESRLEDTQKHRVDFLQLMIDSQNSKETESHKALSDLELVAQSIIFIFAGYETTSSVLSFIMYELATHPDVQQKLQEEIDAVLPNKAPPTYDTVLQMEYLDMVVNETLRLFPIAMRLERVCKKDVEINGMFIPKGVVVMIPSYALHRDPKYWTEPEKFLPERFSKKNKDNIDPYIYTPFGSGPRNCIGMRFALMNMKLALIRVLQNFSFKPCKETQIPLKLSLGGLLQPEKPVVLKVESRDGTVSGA
Cytochrome P450 2C9, sequence (P11712 whole entry): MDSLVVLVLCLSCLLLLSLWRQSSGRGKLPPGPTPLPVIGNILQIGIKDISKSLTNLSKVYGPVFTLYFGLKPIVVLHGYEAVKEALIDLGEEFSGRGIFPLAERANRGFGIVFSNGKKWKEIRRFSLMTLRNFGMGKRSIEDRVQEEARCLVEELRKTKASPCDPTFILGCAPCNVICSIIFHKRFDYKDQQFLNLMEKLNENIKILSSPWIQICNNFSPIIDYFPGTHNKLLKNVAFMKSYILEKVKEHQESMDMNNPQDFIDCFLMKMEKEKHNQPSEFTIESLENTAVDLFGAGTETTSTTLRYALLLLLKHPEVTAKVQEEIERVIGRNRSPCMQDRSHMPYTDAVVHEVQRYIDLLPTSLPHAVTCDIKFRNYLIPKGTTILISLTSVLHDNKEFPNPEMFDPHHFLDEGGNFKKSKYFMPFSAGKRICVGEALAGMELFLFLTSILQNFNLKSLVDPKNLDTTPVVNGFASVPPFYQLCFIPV
Mitogen-activated protein kinase 8, sequence (P45983 whole entry): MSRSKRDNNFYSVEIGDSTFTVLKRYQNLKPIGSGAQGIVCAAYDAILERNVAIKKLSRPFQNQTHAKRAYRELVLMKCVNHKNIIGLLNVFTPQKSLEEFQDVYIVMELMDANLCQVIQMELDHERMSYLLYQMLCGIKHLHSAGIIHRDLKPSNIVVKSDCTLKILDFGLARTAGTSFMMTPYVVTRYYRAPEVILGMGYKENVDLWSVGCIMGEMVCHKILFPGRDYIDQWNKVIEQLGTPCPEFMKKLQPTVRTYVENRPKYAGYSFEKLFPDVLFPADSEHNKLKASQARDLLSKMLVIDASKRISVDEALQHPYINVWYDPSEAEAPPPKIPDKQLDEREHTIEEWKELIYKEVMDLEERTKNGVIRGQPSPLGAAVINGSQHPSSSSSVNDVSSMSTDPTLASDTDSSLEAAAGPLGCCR
Cytochrome P450 2C19, sequence (P33261 whole entry): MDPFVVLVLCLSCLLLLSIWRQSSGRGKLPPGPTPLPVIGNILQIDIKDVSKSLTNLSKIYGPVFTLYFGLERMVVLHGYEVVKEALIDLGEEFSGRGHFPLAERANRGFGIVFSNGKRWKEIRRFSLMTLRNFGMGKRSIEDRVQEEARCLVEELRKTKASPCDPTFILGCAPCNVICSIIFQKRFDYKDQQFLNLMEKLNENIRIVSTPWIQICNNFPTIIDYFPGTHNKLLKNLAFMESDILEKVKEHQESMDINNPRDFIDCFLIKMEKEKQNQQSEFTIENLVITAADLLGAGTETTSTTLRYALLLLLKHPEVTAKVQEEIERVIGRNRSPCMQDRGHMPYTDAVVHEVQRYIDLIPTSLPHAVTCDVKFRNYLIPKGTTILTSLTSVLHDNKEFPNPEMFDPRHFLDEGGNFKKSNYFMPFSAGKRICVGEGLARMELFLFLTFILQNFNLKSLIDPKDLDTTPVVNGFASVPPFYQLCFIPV
Voltage-gated inwardly rectifying potassium channel KCNH2, sequence (Q12809 whole entry): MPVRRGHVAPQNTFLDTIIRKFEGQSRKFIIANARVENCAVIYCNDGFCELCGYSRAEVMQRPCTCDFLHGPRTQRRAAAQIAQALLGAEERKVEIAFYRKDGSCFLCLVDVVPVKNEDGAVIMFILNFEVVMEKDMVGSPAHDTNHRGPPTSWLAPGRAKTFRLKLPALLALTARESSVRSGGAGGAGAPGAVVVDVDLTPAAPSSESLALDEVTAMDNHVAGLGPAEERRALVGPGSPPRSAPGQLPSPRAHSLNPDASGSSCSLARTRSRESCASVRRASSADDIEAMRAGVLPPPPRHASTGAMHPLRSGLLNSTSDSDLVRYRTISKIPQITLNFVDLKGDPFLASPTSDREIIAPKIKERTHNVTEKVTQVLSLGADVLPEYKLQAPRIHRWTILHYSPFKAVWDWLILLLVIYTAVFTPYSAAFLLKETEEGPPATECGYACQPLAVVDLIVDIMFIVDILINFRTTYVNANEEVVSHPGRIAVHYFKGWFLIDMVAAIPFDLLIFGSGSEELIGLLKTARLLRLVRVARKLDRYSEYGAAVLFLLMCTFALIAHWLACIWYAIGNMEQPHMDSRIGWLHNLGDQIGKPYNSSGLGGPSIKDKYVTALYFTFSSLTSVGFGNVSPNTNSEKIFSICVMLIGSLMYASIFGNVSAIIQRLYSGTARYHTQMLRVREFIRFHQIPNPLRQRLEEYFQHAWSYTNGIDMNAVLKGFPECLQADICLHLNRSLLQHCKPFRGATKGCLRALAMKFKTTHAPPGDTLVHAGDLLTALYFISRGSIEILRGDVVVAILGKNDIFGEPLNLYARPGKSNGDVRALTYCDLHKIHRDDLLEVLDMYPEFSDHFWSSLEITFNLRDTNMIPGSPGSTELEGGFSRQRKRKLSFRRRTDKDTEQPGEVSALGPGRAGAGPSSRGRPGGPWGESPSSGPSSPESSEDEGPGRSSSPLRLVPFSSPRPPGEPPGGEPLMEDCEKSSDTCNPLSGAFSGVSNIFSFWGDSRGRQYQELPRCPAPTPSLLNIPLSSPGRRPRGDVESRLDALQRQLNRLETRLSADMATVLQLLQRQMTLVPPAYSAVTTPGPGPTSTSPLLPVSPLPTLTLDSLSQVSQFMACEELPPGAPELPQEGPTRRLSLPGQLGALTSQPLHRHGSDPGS
Serine/threonine-protein kinase PLK1, sequence (P53350 whole entry): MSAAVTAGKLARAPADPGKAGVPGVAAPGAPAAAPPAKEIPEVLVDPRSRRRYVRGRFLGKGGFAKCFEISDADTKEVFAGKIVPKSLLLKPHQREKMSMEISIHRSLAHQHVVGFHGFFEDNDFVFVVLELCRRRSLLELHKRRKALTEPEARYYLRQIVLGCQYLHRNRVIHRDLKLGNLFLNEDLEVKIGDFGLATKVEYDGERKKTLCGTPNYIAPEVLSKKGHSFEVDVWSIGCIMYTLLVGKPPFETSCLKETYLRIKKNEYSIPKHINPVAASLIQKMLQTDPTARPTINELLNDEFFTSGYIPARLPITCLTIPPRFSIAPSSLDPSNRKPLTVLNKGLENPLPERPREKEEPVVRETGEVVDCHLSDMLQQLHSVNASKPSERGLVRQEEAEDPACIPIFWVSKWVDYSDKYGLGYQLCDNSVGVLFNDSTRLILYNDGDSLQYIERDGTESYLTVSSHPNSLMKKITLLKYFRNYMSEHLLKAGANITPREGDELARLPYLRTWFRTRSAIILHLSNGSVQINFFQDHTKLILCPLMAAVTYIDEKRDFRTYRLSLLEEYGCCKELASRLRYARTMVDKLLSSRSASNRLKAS
Mitogen-activated protein kinase 9, sequence (P45984 whole entry): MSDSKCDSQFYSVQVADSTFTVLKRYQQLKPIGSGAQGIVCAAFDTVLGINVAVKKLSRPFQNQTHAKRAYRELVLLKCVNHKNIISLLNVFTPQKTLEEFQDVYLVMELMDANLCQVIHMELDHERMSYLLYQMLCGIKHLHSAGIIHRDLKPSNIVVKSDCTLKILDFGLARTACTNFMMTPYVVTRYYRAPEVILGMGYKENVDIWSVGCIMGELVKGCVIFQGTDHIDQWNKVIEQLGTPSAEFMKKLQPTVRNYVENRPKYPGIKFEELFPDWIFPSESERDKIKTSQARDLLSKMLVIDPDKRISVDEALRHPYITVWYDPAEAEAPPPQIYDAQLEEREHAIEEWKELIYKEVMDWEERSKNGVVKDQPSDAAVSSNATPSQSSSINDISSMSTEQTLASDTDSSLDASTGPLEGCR

COCCOc1cc(-c2cnn(C)c2)ccc1Nc1ncc2ccnc(-c3cnn(C)c3)c2n1
metabolised at 0.5 h, 10 µM [1]: 59%

COc1cc(-c2cnn(C)c2)ccc1Nc1ncc2ccnc(NCC(C)C)c2n1
GI50 [2]: 1100 nM | metabolised at 0.5 h, 10 µM [1]: 66%

COc1ccc(Nc2cc3c(-c4ccco4)cccc3cn2)cc1
IC50 (CDK2/Cyclin A2): 31100 nM

COc1cc(-c2cnn(C)c2)ccc1Nc1ncc2ccnc(-c3cnn(C)c3)c2n1
metabolised at 0.5 h, 10 µM [1]: 73%

COc1cc(-c2cnn(C)c2)ccc1Nc1ncc2ccnc(N[C@@H](C)C(C)(C)C)c2n1
GI50 [3]: 65 nM | fraction unbound at 24 h [4]: 0.0002 | IC50 [5]: 110 nM | inhibition (INH) (Cytochrome P450 2B6): Not Active | AUC at 24 h [6]: 9.3 µM·h | IC50 [7]: > 100000 nM | bioavailability [8]: 100% | inhibition (INH) (Cytochrome P450 2C9): Not Active | inhibition (INH) (Cytochrome P450 2A6): Not Active | inhibition (INH) (Cytochrome P450 2C8): Not Active | metabolised at 0.5 h, 10 µM [9]: 24% | GI50 [10]: 110 nM | GI50 [2]: 160 nM | inhibition (INH) (Cytochrome P450 2C19): Not Active | inhibition (INH) (Cytochrome P450 3A4 [11]): Not Active | fraction unbound at 24 h [12]: 0.0003 | metabolised at 0.5 h, 10 µM [1]: 27% | Vd [13]: 14.7 L/kg | Cmax [14]: 770 nM | GI50 [15]: 250 nM | bioavailability [16]: 68% | metabolised at 0.5 h, 10 µM [17]: 70% | AUC at 24 h [18]: 4.8 µM·h | GI50 [19]: 230 nM | clearance [20]: 28 mL/min/kg | Cmax [21]: 560 nM | clearance [22]: 24 mL/min/kg | half-life [23]: 8.2 h | Vd [24]: 4.64 L/kg | inhibition (INH) (Cytochrome P450 3A4 [25]): Not Active | GI50 [26]: 3950 nM | GI50 [27]: 68 nM | inhibition (INH) [28]: Not Active | inhibition (INH) (Cytochrome P450 1A2): Not Active | IC50 [29]: 220 nM | inhibition (INH) (Cytochrome P450 3A4 [30]): Not Active | half-life [31]: 2.5 h

COc1cc(-c2cnn(C)c2)ccc1Nc1ncc2ccnc(NCC3CC3)c2n1
GI50 [2]: 320 nM | metabolised at 0.5 h, 10 µM [1]: 33%

COc1cc(-c2cnn(C)c2)ccc1Nc1ncc2ccnc(SC3CCCCC3)c2n1
IC50 (CDK2/Cyclin A2): > 10000 nM

COc1ccc(Nc2cc3c(-c4cnn(C)c4)cccc3cn2)cc1
IC50 (CDK2/Cyclin A2): 1220 nM

CC(C)Oc1cc(-c2cnn(C)c2)ccc1Nc1ncc2ccnc(-c3cnn(C)c3)c2n1
metabolised at 0.5 h, 10 µM [1]: 45% | IC50 (CDK2/Cyclin A2): > 10000 nM
